# According to PMC6798786 (Brain Communications, 2019):
# Where two headings read alike, the source gives them in different places.
# Key:
# scn1lab mutant zebrafish [1] = tested on: scn1lab mutant zebrafish; parameters: method as in Dinday and Baraban, 2015; Sourbron et al., 2016; conditions: ref Dinday and Baraban, 2015; Sourbron et al., 2016; cited from earlier work
# 5-HT1B = conditions: known drugs of Table 1; reference not given; cited from earlier work
# 5-HT1D = conditions: known drugs of Table 1; reference not given; cited from earlier work
# 5-HT6 = conditions: known drugs of Table 1; reference not given; cited from earlier work
# 5-HT7 = conditions: known drugs of Table 1; reference not given; cited from earlier work
# Adrenergic alpha1B = conditions: known drugs of Table 1; reference not given; cited from earlier work
# [2] = use as anorectic; ref Abenhaim et al., 1996; Khan et al., 1998; cited from earlier work
# scn1lab mutant zebrafish [3] = assay: locomotion (mean swim velocity) seizure-like behaviour assay in scn1lab mutant zebrafish larvae; format: in vivo, Danio rerio; conditions: for change in vivo at 100 µM / change in vivo at 250 µM: Danio rerio
# Description: For locomotion studies, zebrafish larvae (5 days post-fertilization) were placed into a single well of a clear flat-bottomed 96-well microplate containing embryo media. Sex determination is not possible at this stage of development. All drug screening experiments were conducted in an unbiased manner by investigators blinded to the test compounds and all files coded for post hoc analysis. The 96-well plate containing larvae was then placed inside a DanioVision box where they were allowed to acclimate (20 min; room temperature). EthoVision XT software (DanioVision, Noldus Information Technology) was used to obtain locomotion plots (10 min in duration). Seizure scoring was performed, as described ([Baraban et al., 2005]). All locomotion plots were analysed for distance travelled (in millimetres) and mean velocity (in millimetres per second). After 90 min of drug exposure larvae were examined for toxic side-effects. Compounds that decreased or stopped the larva heartbeat, or reduced or eliminated the escape response when touched, were considered toxic.
# For behaviour analysis, the threshold for a change in mean swim velocity ≥40% is considered significant (>1.5× SD of 250 control treated scn1lab). Unless otherwise indicated, all data in this manuscript are presented as the mean ± standard error of the mean. […] Statistically significant differences are indicated with asterisks (*P < 0.05; **P < 0.01; ***P < 0.001). […]
# human 5-HT2AR = human 5-HT2AR (Homo sapiens, UniProt P28223); assay: radioligand binding (NIMH PDSP)
# human 5-HT2AR, sequence (P28223 whole entry): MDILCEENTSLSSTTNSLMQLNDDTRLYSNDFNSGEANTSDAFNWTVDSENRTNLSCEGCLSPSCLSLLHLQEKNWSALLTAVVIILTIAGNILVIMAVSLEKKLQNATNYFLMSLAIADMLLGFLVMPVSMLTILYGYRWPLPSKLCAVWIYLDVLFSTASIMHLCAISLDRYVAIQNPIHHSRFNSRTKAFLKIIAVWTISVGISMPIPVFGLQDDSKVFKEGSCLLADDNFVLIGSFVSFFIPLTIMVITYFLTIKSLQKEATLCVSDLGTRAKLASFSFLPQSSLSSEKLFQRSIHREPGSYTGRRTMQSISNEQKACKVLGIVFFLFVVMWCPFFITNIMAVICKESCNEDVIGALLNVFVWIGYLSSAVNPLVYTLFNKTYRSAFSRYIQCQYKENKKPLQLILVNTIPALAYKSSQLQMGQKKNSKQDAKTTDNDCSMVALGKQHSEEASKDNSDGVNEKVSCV
# Description: (§1) All in vitro binding assay and Ki data studies were performed by the US National Institute of Mental Health Psychoactive Drug Screening Program (NIMH PDSP). For these studies, drugs were screened against recombinant, stably expressed human 5-HT2AR, 5-HT2BR, 5-HT2CR and H1, as described at https://pdspdb.unc.edu/pdspWeb/ ([Besnard et al., 2012]).
# human 5-HT2BR [4] = molecular target: T1, human 5-HT2BR (Homo sapiens, UniProt P41595); assay: radioligand binding (NIMH PDSP); conditions: read-out: Ki 5-HT2BR
# T1 sequence (P41595 whole entry): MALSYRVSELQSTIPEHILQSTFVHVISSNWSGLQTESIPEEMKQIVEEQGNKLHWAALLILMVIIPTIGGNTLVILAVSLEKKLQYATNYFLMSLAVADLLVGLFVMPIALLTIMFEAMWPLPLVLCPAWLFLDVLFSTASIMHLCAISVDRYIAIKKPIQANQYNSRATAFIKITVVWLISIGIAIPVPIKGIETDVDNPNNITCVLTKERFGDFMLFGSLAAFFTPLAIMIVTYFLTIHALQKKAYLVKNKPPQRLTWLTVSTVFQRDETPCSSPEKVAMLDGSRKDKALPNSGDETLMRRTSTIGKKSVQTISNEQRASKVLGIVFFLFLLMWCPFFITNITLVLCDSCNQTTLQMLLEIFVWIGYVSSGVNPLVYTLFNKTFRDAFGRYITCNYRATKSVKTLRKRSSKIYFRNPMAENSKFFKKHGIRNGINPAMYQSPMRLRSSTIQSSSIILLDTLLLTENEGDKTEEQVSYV
# Description: as §1
# human 5-HT2CR [5] = molecular target: T2, human 5-HT2CR (Homo sapiens, UniProt P28335); assay: radioligand binding (NIMH PDSP)
# T2 sequence (P28335 33-458): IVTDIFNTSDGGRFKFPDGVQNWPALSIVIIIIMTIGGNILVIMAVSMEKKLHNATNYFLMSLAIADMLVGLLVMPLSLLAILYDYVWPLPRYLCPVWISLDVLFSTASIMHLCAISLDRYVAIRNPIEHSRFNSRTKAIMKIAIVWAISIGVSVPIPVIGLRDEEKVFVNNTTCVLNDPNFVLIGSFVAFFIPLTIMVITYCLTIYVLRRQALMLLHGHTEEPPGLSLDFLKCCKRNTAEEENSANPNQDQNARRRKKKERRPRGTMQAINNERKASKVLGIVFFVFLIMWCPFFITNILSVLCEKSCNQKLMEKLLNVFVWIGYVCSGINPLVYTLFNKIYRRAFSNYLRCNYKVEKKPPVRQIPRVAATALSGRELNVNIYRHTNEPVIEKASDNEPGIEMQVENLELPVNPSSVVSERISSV
# Description: as §1
# human H1 = human H1 (Homo sapiens, UniProt P35367); assay: radioligand binding (NIMH PDSP); conditions: read-out: Ki H1
# human H1, sequence (P35367 whole entry): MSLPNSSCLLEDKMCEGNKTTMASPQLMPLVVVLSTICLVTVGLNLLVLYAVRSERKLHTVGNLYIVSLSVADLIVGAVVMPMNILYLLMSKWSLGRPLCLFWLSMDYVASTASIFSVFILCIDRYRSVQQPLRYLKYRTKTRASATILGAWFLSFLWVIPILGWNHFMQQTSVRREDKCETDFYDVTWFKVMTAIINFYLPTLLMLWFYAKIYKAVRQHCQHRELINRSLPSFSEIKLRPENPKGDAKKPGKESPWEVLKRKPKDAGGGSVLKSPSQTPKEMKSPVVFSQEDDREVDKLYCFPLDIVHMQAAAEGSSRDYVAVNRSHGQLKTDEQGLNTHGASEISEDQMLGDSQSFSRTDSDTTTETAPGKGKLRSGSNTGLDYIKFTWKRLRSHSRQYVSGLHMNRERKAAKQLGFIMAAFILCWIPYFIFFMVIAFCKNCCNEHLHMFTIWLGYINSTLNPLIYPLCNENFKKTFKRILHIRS
# Description: as §1
# [6] = dissolution of compound at screening concentration; conditions: 250 µM
# Description: Ten millimolars of compound stock solutions were made in dimethyl sulfoxide and then diluted in embryo medium for assays.
# scn1lab mutant zebrafish [7] = assay: local field potential (LFP) electrophysiology, electrographic seizure events; format: in vivo, Danio rerio; conditions: 250 µM; 10 min recording epoch
# Description: Using a glass micro-electrode positioned under an upright microscope, local field potential (LFP) recordings were obtained from forebrain or optic tectum structures, as described ([Baraban et al., 2005]). Agarose-embedded LFP recording sessions (10 min in duration) were obtained using Axoclamp software (Molecular Devices; Sunnyvale, CA, USA) and sampled at 1 kHz. Epileptiform events were identified post hoc. These were classified as multi-spike or poly-spike upward or downward membrane deflections greater than 3× baseline noise level and 150–250 ms in duration (interictal-like) or greater than 5× baseline noise, multi-spike and >500 ms in duration (ictal-like); both events were counted using threshold detection settings in Clampfit (Molecular Devices; Sunnyvale, CA, USA). Agarose-embedded larvae were continuously monitored for blood flow and heart rate using an Axiocam digital camera at video frame rate.
# Monitoring electrographic brain activity to confirm seizure suppression is an essential assay to eliminate false positives from behavioural testing ([Griffin et al., 2018]). By placing a micro-electrode into a visually identified brain region of an agar-immobilized zebrafish larval, stable LFP recordings can be monitored for several hours ([Baraban, 2013]). At 5 days post-fertilization, LFP recordings of scn1Lab zebrafish larvae show an average of 250 abnormal electrographic seizure events during a 10 min recording epoch.
# human 5-HT2BR [8] = molecular target: T1, human 5-HT2BR; conditions: read-out: Ki 5-HT2B, Table 1 known drugs; known drugs of Table 1; reference not given; cited from earlier work
# human 5-HT2CR [9] = molecular target: T2, human 5-HT2CR; conditions: read-out: Ki 5-HT2C, Table 1 known drugs; known drugs of Table 1; reference not given; cited from earlier work
# 5-HT1E = conditions: known drugs of Table 1; reference not given; cited from earlier work
# 5-HT1F = conditions: known drugs of Table 1; reference not given; cited from earlier work
# human 5-HT2R = assay: radioligand binding (NIMH PDSP), any 5-HT2R subtype; conditions: 5-HT2AR, 5-HT2BR, 5-HT2CR
# Description: as §1
# Additionally, 5-HT2R modulating compounds exert antiepileptic activity in both preclinical ([Sourbron et al., 2016]; [Griffin et al., 2017]) and clinical studies ([Griffin et al., 2017]; [Schoonjans et al., 2017]; [Kauppila et al., 2018]). […] […].
# [10] = read-out: % change in velocity, individual larva 1 (heat map)
# [11] = read-out: % change in velocity, individual larva 2 (heat map)
# [12] = read-out: % change in velocity, individual larva 3 (heat map)
# [13] = read-out: % change in velocity, individual larva 4 (heat map)
# [14] = read-out: % change in velocity, individual larva 5 (heat map)
# [15] = read-out: % change in velocity, individual larva 6 (heat map)
# [16] = read-out: mean velocity change from six fish, Trial 1
# [17] = recombinant, stably expressed human receptor, clemizole analogues
smiles,measurement,setting,value
CCNC(C)Cc1cccc(C(F)(F)F)c1 (centres unmarked) [fenfluramine],suppression of spontaneous seizures in scn1lab zebrafish (earlier work),scn1lab mutant zebrafish [1],effective in suppressing spontaneous seizures
same,Ki,5-HT1B,1840 nM
same,Ki,5-HT1D,1260 nM
same,Ki,5-HT6,9080 nM
same,Ki,5-HT7,7310 nM
same,Ki,Adrenergic alpha1B,142 nM
same,patients with heart valve defects,[2],~25%
CC(C)(C)OC(=O)N1CCN(Cc2nc3ccccc3n2Cc2ccc(Cl)cc2)CC1 [Compound 25],change in vivo at 100 µM,scn1lab mutant zebrafish [3]; [10],-56%
same,change in vivo at 250 µM,scn1lab mutant zebrafish [3]; [10],-87%
same,change in vivo at 100 µM,scn1lab mutant zebrafish [3]; [11],91.3%
same,change in vivo at 250 µM,scn1lab mutant zebrafish [3]; [11],-92.4%
same,change in vivo at 100 µM,scn1lab mutant zebrafish [3]; [12],-65.8%
same,change in vivo at 250 µM,scn1lab mutant zebrafish [3]; [12],-76.5%
same,change in vivo at 100 µM,scn1lab mutant zebrafish [3]; [13],78.7%
same,change in vivo at 250 µM,scn1lab mutant zebrafish [3]; [13],-56.9%
same,change in vivo at 100 µM,scn1lab mutant zebrafish [3]; [14],35.7%
same,change in vivo at 250 µM,scn1lab mutant zebrafish [3]; [14],-100%
same,change in vivo at 100 µM,scn1lab mutant zebrafish [3]; [15],153%
same,change in vivo at 250 µM,scn1lab mutant zebrafish [3]; [15],-23.6%
same,change in vivo at 100 µM,scn1lab mutant zebrafish [3]; [16],42%
same,change in vivo at 250 µM,scn1lab mutant zebrafish [3]; [16],-82.5%
same,change in vivo at 100 µM,"scn1lab mutant zebrafish [3]; read-out: mean velocity change from six fish, Trial 2",42%
same,Ki,human 5-HT2AR,2380 nM
same,Ki,human 5-HT2BR [4],482 nM
same,Ki,human 5-HT2CR [5],2260 nM
same,Ki,human H1,76 nM
same,going into solution at screening concentration,[6],failed to go into solution
CC[C@@H](CO)NC(=O)[C@@H]1C=C2c3cccc4[nH]cc(c34)C[C@H]2N(C)C1 [methylergonovine],"effect on seizure-like swim behaviour, commercially available compounds","scn1lab mutant zebrafish [3]; three concentrations, 30 and 90 min exposure",suppressed convulsive swim behaviours in a concentration-dependent manner
same,effect on frequency of electrographic seizure events (LFP),scn1lab mutant zebrafish [7],significantly suppressed the frequency of electrographic seizure events
same,Ki,human 5-HT2BR [8],2.2 nM
same,Ki,human 5-HT2CR [9],4.6 nM
same,Ki,5-HT1E,89.1 nM
same,Ki,5-HT1F,31 nM
c1ccc2c(c1)nc(CN1CCCC1)n2CC1CCOCC1 [Compound 15],Ki,human 5-HT2AR; [17],> 10000 nM
same,Ki,human 5-HT2BR [4]; [17],> 10000 nM
same,Ki,human 5-HT2CR [5]; [17],> 10000 nM
same,Ki,human H1; [17],865 nM
same,binding to any human 5-HT2R,human 5-HT2R,no significant binding
